Experimental data from PMC6469291, “2-Nitroimidazole-Furanoside Derivatives for Hypoxia Imaging—Investigation of Nucleoside Transporter Interaction, ^18F-Labeling and Preclinical PET Imaging” (Pharmaceuticals, 2019).
Read-outs that look alike come from different tables or passages of the source.

Key:
Assay type in all cases: cell-based
hENT1 (SLC29A1) = target: T1, hENT1 (SLC29A1) (Homo sapiens, UniProt Q99808); experiment: Inhibition of [^3H]uridine uptake in yeast cells producing recombinant hENT1
T1 construct: expressed in transfected cells; host or cells: Saccharomyces cerevisiae
T1 sequence (Q99808 1-456): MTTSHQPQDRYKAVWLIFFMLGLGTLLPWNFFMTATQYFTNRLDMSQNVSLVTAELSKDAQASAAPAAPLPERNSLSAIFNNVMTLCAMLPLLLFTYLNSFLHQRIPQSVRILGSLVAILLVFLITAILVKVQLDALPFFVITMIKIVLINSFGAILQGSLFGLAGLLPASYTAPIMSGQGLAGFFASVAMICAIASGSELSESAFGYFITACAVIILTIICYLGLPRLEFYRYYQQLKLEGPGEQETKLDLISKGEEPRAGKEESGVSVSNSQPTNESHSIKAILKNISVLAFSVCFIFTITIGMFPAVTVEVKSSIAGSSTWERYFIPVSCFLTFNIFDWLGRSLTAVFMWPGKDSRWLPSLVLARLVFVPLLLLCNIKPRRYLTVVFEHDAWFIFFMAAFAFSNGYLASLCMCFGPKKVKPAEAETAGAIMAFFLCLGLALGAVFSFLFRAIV
Protocol: (§1) The interaction of 2-nitroimidazole sugars with nucleoside transporters was determined by ability of the 2-nitroimidazole sugars to inhibit [^3H]uridine uptake in yeast cells producing recombinant human nucleoside transporters and results expressed as IC50 values.
(§2) Saccharomyces cerevisiae yeast was separately transformed with plasmids (pYPhENT1, pYPhENT2, pYPhCNT1, pYPhCNT2, or pYPhCNT3) encoding hNTs (hENT1, hENT2, hCNT1, hCNT2, or hCNT3, respectively) as described elsewhere. Uptake of 1 µmol/L [^3H]uridine (Moravek Biochemicals) into yeast was measured as previously described using a semi-automated cell harvester (Micro96 HARVESTER; Skatron Instruments, Tranby, Norway). Yeast was incubated at room temperature with 1 µmol/L [^3H]uridine in yeast growth media (pH 7.4) in the presence or absence (uninhibited controls) of graded concentrations (0–3 mM) of test compounds. The following compounds were used for transporter experiments: FAZA, β-FAZA, α-FAZDR, β-FAZDR. Uridine self-inhibition was used to determine maximum inhibition of mediated transport. Concentration–effect curves were subjected to nonlinear regression analysis using Prism software (version 4.03; GraphPad Software Inc.) to obtain the concentration of test compound that inhibited uridine uptake by 50%, relative to that of untreated cells (IC50 values). Each IC50 value determination was conducted with nine concentrations and four replicates per concentration and experiments were repeated two to three times.

hCNT1 (SLC28A1) = target: T2, hCNT1 (SLC28A1) (Homo sapiens, UniProt O00337); experiment: Inhibition of [^3H]uridine uptake in yeast cells producing recombinant hCNT1
T2 construct: expressed in transfected cells; host or cells: Saccharomyces cerevisiae
T2 sequence (O00337 1-649): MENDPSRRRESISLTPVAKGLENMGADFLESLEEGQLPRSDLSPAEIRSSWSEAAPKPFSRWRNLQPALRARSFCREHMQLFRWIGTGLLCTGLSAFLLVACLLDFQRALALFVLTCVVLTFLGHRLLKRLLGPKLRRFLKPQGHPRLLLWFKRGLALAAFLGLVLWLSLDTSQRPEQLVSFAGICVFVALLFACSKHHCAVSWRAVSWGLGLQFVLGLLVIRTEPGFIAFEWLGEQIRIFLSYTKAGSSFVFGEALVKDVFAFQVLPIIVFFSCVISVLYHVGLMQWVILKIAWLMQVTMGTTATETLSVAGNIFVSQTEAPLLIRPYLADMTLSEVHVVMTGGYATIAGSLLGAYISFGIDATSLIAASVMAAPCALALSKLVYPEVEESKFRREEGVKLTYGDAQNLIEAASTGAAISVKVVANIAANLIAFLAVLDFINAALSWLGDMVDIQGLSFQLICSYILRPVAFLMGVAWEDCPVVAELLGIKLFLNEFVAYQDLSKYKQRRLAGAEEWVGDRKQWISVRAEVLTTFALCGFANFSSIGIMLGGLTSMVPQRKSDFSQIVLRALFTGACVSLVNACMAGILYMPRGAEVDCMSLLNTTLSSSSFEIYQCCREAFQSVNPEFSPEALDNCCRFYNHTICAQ
Protocol: as §1, §2

hCNT2 (SLC28A2) = target: T3, hCNT2 (SLC28A2) (Homo sapiens, UniProt O43868); experiment: Inhibition of [^3H]uridine uptake in yeast cells producing recombinant hCNT2
T3 construct: expressed in transfected cells; host or cells: Saccharomyces cerevisiae
T3 sequence (O43868 1-658): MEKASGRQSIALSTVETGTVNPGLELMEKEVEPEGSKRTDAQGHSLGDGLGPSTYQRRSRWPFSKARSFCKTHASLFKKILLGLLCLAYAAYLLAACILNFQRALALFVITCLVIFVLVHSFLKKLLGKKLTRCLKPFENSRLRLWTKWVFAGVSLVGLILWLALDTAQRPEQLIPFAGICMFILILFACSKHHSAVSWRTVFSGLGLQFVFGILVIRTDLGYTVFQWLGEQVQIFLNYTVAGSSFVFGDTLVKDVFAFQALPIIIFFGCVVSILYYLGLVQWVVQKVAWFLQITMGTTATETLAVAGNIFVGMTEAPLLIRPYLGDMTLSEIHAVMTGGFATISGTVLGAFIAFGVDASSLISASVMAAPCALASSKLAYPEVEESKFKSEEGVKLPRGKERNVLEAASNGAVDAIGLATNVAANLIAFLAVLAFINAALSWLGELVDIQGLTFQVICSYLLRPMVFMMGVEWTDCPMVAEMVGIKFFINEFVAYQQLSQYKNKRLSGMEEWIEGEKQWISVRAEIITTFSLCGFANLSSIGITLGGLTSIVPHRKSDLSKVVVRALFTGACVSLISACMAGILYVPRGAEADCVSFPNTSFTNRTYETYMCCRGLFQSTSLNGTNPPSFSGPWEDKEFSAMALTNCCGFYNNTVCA
Protocol: as §1, §2

hCNT3 (SLC28A3) = target: T4, hCNT3 (SLC28A3) (Homo sapiens, UniProt Q9HAS3); experiment: Inhibition of [^3H]uridine uptake in yeast cells producing recombinant hCNT3
T4 construct: expressed in transfected cells; host or cells: Saccharomyces cerevisiae
T4 sequence (Q9HAS3 1-691): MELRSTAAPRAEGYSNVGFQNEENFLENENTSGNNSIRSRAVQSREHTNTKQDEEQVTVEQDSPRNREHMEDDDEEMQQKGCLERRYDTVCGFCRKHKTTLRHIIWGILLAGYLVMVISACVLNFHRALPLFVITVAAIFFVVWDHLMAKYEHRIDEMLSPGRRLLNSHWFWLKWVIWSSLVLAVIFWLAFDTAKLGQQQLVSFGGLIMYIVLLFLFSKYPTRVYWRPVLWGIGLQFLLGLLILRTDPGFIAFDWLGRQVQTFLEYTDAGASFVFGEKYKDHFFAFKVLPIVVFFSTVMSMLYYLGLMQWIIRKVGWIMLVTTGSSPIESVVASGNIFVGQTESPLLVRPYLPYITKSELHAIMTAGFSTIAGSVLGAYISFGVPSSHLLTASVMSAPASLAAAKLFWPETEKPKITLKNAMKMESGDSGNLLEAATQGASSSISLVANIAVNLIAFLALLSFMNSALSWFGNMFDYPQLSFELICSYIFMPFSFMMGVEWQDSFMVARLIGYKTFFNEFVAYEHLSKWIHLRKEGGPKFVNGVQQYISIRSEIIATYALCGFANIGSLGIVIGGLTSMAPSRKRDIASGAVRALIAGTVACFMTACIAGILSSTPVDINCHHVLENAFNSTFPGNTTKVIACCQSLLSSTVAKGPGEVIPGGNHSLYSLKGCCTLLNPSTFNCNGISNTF
Protocol: as §1, §2

hENT2 (SLC29A2) = target: T5, hENT2 (SLC29A2) (Homo sapiens, UniProt Q14542); experiment: Inhibition of [^3H]uridine uptake in yeast cells producing recombinant hENT2
T5 construct: expressed in transfected cells; host or cells: Saccharomyces cerevisiae
T5 sequence (Q14542 1-456): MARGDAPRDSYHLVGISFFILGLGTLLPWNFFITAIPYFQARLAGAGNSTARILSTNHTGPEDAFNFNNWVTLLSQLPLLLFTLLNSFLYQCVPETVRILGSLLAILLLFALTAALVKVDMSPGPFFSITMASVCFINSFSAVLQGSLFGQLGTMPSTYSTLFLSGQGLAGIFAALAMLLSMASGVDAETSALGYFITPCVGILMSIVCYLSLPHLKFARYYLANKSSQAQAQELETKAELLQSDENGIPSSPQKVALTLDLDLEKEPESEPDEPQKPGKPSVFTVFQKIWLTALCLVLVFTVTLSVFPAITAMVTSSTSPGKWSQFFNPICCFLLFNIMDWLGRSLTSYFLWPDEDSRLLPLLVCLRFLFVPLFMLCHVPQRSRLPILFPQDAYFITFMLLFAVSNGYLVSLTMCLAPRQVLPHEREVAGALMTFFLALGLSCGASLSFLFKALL
Protocol: as §1, §2

[1] = inhibition of 1 µmol/L [^3H]uridine transport, yeast, 0–3 mM test compound, mean ± SE, n = 2–3, NI = no interaction

Structure (SMILES) | IC50 (hENT1 (SLC29A1)) [mM] | IC50 (hCNT1 (SLC28A1)) [mM] | IC50 (hCNT2 (SLC28A2)) [mM] | IC50 (hCNT3 (SLC28A3)) [mM] | IC50 (hENT2 (SLC29A2)) [mM] | IC50 (hENT1 (SLC29A1); [1]) [mM] | IC50 hENT1 (SLC29A1) (hENT1 (SLC29A1); [1]) | IC50 (hCNT1 (SLC28A1); [1]) [mM] | IC50 hCNT1 (SLC28A1) (hCNT1 (SLC28A1); [1]) | IC50 (hCNT2 (SLC28A2); [1]) [mM] | IC50 hCNT2 (SLC28A2) (hCNT2 (SLC28A2); [1]) | IC50 (hCNT3 (SLC28A3); [1]) [mM] | IC50 hCNT3 (SLC28A3) (hCNT3 (SLC28A3); [1]) | IC50 (hENT2 (SLC29A2); [1]) [mM] | IC50 hENT2 (SLC29A2) (hENT2 (SLC29A2); [1])
O=[N+]([O-])c1nccn1[C@@H]1O[C@H](CF)[C@@H](O)[C@@H]1O [β-FAZA, 1-(5′-Deoxy-5′-fluoro-β-D-arabinofuranosyl)-2-nitroimidazole] | 2.07 ± 0.05 | > 3 | > 3 | 2.31 ± 0.352 | > 3 | – | – | – | – | – | – | – | – | – | –
O=[N+]([O-])c1nccn1C1CC(O)C(CF)O1 (stereo not drawn) [α-FAZDR] | – | – | – | – | – | > 3 | no interaction | > 3 | no interaction | > 3 | no interaction | > 3 | no interaction | > 3 | no interaction
O=[N+]([O-])c1nccn1C1CC(O)C(CF)O1 (stereo not drawn) [β-FAZDR] | – | 0.269 ± 0.004 | – | 0.124 ± 0.033 | > 3 | – | – | – | – | – | – | – | – | – | –
